Source: patent US9586994B2, “CD44V6-derived peptides for treating breast cancer” (KARLSRUHER INSTITUT FÜR TECHNOLOGIE, priority 2012, dated 2017)
Entries after “also recorded” stand apart in the source; their conditions may differ. Where two headings read alike, the source gives them in different places. No end group written: not given here.

Key:
Met = conditions: N and E of the pentapeptide changed to A, Matzke et al., Cancer Res. (2005), cited from earlier work
CD44v6 = experiment: HGF-induced activation of Met and ERK in L3.6pl cells (Western blot); type: cell-based, human; conditions: peptide before induction with 10 ng/ml HGF
Description: Serum-starved cells (24 hours) were induced with the growth factor HGF (10 ng/mL) at 37° C. for 5 minutes. Where indicated, the cells were treated with peptides (100 ng/ml) prior to induction at 37° C. for 10 minutes (100 ng/mL CD44v6 peptide or control peptide). Following the induction with HGF, cells were washed with ice-cold phosphate-buffered saline (PBS). To detect activated Met and ERK, cells were lysed in sodium dodecyl sulfate (SDS)—sample buffer containing 100 mM dithiothreitol (DTT), boiled and subjected to western blot analysis using antibodies against phospho-Met and ERK. The loading controls were performed on the same blot after stripping (62.5 mM Tris, pH 6.8, 2% SDS, 0.8% DTT) by probing with the Met respectively Erk antibody. Blots were stained using the enhanced chemiluminescence system (Thermo Fisher Scientific, Schwerte, Germany). Bands in western blot analysis were quantified with the program Image J (National Institutes of Health).
To expand the studies to human pancreatic tumors, the highly metastatic human pancreatic carcinoma cells L3.6pl (Bruns, et al. Neoplasia (1999), 1(1):50-62) were investigated. These cells originate from the […] cells that have been passaged several times in the liver and the pancreas, a step that rendered them more and more metastatic. It was confirmed that Met is dependent on CD44v6 for its activation and signaling in these cells (FIG. 19A). The L3.6pl cells were treated with HGF in the presence or absence of a human v6 peptide of SEQ ID NO: 2 or SEQ ID NO:6 and Met activation and downstream signaling to ERK was measured. Phosphorylation of both Met and ERK was inhibited by the human v6 peptide. Treatment with a corresponding rat v6 peptide (ctrl peptide, SEQ ID NO: 10 or 11) had no influence on receptor activation and signal transduction (FIG. 19A).
The contribution of CD44v6 to Met signaling in the human epithelial pancreatic cancer cells L3.6pl (derived from Colo 357), the cervix carcinoma cells HeLa and the colon cancer cells HT29 were analysed using the CD44v6 peptide (v6 14mer; v6 5mer tested as well, data not shown).

L3.6pl cells = experiment: Human orthotopic pancreatic cancer model, L3.6pl cells in nude mice, treatment from day 7; type: in vivo, mouse; conditions: nude mice, orthotopic L3.6pl; 20 μg i.p. three times per week; listed as rat-specific peptide
Description: In the case of the human orthotopic model, L3.6pl pancreatic carcinoma cells (passage 24-26) were suspended in Hank's balanced salt solution (Invitrogen, Karlsruhe, Germany) after trypsinization. The cells were injected orthotopically in the pancreas of male nude mice as described (Bruns C J et al. (1999) Neoplasia 1(1):50-62). Two groups of 15 mice each were injected i.p. 7 days later with either the human v6 peptide respectively rat control peptide (20 μg). For all experiments described and depicted herein either the rat 14mer control peptide or the human 14mer peptide were used. All experiments were then repeated with the rat 5mer control peptide or the human 5mer peptide (N-R-W-H-E, SEQ ID NO: 2). […] The injection was repeated three times per week for 21 days. Two days after the last treatment the animals were killed.
7 μm thick paraffin sections were deparaffinized and rehydrated. For P-Met staining antigen unmasking was achieved by boiling the slides in 1 mM EDTA pH 8.0 followed by incubation for 15 minutes at a sub-boiling temperature, for CD31 staining the sections were treated with Proteinase K (8 μg/ml) for […] at 37° C. For immunofluorescence staining of P-Met, unspecific binding was blocked with 5% goat serum (DAKO, Glostrup, Denmark) (diluted in 1×PBS/0.3% Triton X-100) for 60 minutes. In the case of immunohistochemistry, endogenous peroxidases were at first blocked with 3% H2O2 in PBS followed by incubation with biotin blocking system (Dako, Glostrup, Denmark) and then unspecific binding was inhibited by incubation with 5% FCS in PBS was used for blocking. The sections were incubated with the P-Met antibody (D26, dilution 1:50 in 1×PBS/1% BSA/0.3% Triton X-100), Met antibody (C-28, dilution 1:50), GFP antibody (sc-101525, dilution 1:50) or CD31 antibody (5 μg/ml) over night or VFF18 (5 μg/ml) o/n at 4° C. After washing in PBS the sections were incubated with Alexa Fluor R 546 goat anti-rabbit (in case of immunofluorescence P-Met and Met staining, dilution 1:500) or a biotinylated secondary antibody (for immunohistochemical stainings rabbit anti-rat antibody for VFF18 and CD31, goat anti-rabbit for P-Met, cleaved Caspase-3 and cleaved Caspase-8 and rabbit anti-mouse for GFP, dilution 1:500) for 45 minutes. For DAB staining the sections were treated with a streptavidin-peroxidase conjugate (Dako, Glostrup, Denmark) and developed with DAB (3,3′-diaminobenzidine) substrate system (3,3′-diaminobenzidine; Biozol, Eching, Germany) For immunofluorescence DAPI was used for nuclear staining.
To test the effect of the peptide on tumor growth and metastasis formation the L3.6pl cells were orthotopically injected into the pancreas of immunosuppressed mice (NCI-nu). […] The primary tumor expresses a high amount of CD44v6 (FIG. 19B). […] Indeed, human HGF in a concentration of 3375 pg/ml was detected in the supernatant (see Material and Methods) after 5 days of culture (data not shown).

BSp73ASs6 cells = experiment: Rat syngeneic model, subcutaneous BSp73ASs6 tumors, treatment from one week (metastasis formation); type: in vivo; conditions: rats, s.c. BSp73ASs6
Description: In the case of the rat syngeneic model, 1×10^6 pancreatic cells (BSp73AS and its transfectants) were subcutaneously injected into the right posterior flank of the animals. Tumors developed for four weeks. During this time period animals injected with BSp73ASs6 cells expressing Met-shRNA or control-shRNA received doxycycline in the drinking water. At the end of the experiment, primary tumors were isolated. Lungs and axillary lymph nodes were analyzed. The tissues were incubated for 24 h in a zinc-fixative (0.5 g calcium acetate, 5.0 g zinc acetate, 5.0 g zinc chloride, in 1 L 0.1 M Tris pH 7.4) and embedded in paraffin for further analysis. In case of peptide or antibody treatment tumors developed for one week before the first treatment. Where indicated, animals received 200 μg of peptide or antibody per injection three times per week for four weeks. Tumor growth was monitored weekly using a caliper Animals were killed at day 28 or 30 after start of the treatment.
For histomorphological analysis paraffin-embedded sections of lungs were stained with hematoxylin and eosin and periodic acid-Schiff (H&E or PAS). Serial sections of the whole tissue blocks were examined by analyzing slices every 20 μm; in each slice, the presence and the extension of the metastatic deposit was assessed, according to the procedure routinely used by pathologists to evaluate the presence of micrometastases.
Rat peptides had the sequences KEKWFENEWQGKNP (SEQ ID NO: 10) and NEWQG (SEQ ID NO: 11). BSp73ASs6 cells were subcutaneously injected into syngeneic rats and rat CD44v6 peptides of SEQ ID NO: 10 or SEQ ID NO: 11 (or mouse control peptides) or the CD44v6 antibody (or IgGs as a control) were injected intra-tumoral or intravenously three times a week. […] This is compatible with the fact that also BSp73AS cells or BSp73ASv1-10Δv6 cells can induce the formation of primary tumors similarly to the v6 transfectants.

murine 4T1 cells = experiment: Syngeneic orthotopic 4T1 mammary carcinoma model in BALB/c mice; type: in vivo, mouse
Description: FIG. 27: Treatment with the v6 14mer reduces growth of the primary tumor and macroscopic metastases formation in the lung. 1×10^6 murine 4T1 cells per mouse were diluted in 50 μl RPMI plus 50 μl Matrigel and injected into the […] mammary fat pad of 10 female BALB/c mice. One week after the injection, the mice were either injected intraperitoneally with 20 μg of the murine v6 14mer dissolved in 100 μl PBS or with 20 μg of control peptide (rat v6 14mer) dissolved in 100 μl PBS. The injection was performed 3 times per week for two weeks. After 2 weeks the mice were sacrificed and the primary tumors and the lungs were extracted. A: Overall reduction of the tumor volume in the v6 peptide treated group B: Immunofluorescent staining for the endothelial marker CD34 to monitor vascularization of the primary tumor. Graphic representation of the reduction of the total vessel area. C: The v6 peptides led to a reduction in macroscopic lung metastasis. The black arrows mark examples for metastases. The scale bar corresponds to a size of 1 cm. Statistical evaluation of the average number of lung metastases. Significance was calculated using Student's t test: p*<0.01; **p<0.005. Each group consisted of 5 animals.
All animals were handled according to German regulations for animal experimentation. The animal experiments were approved by the Regierungspräsidium Karlsruhe (35-9185.81/G-83/04). All mice were obtained from Harlan. 1×10^6 murine 4T1 cells (diluted in either […] of control peptide or […] of CD44v6 peptide (peptides of SEQ ID No.: 6 were tested) in PBS) were orthotopically injected into the mammary fat pad of female BALB/c mice. In succession, 5 of the mice were injected intraperitoneally with a CD44v6-peptide (20 μg per mouse) (peptides of SEQ ID No.: 6 were tested) and 5 of the mice were injected with an unspecific control peptide (20 μg per mouse) three times a week. After four weeks, the mice were sacrificed and the tumors as well as the lung and lymph nodes of the animals were extracted. These organs were then fixed in 4% Formalin, processed and embedded in paraffin. […]

BSp73ASs6 tumors = conditions: rat
Description: To avoid autofluorescence of fur, rats were shaved around the tumor prior to imaging. Subsequently, animals were anesthetized using 2% isoflurane and gently fixed on the devices' heated plate for the entire time of data acquisition. To reduce fluorescence background, rats were fed with chlorophyll-reduced food (Provimi Kliba AG, Kaiseraugst, Switzerland) for one week prior NIRF imaging. All in vivo analyses were preceded by native scans of animals without any injection of the fluorescent probe. For in vivo analysis, rats were injected with 200 μg DY681-labeled rat v6 11 mer peptide or the human v6 11 mer peptide via the tail vein. Controls were injected with the equal amount of DY681-labeled mouse v6 11mer peptide. […] All peptides were labeled with the fluorescent dye DY681. Data were acquired at the indicated time after injection of the peptides. […]
DY681 fluorescence was measured using excitation at 670 nm in combination with a 700 nm long-pass emission filter. […] Data sets were analyzed with OptiView (ART).
For in vivo experiments, BSp73ASs6 cells were injected subcutaneously into syngeneic rats. […] The accumulation of the fluorescence was measured in the tumor region by Optix MX2 at the indicated time points. […] Then, in vivo binding kinetics of the Dy681-labeled v6 peptides to the subcutaneous tumors were determined. […]

A-R-W-H-A (ARWHA) [SEQ ID NO: 3]
CD44v6 mediated activation of Met (Met): still active in inhibiting CD44v6 mediated activation of Met | CD44v6 mediated activation of Met (Met; listed as SEQ ID NO:3): capable of abrogating Met activation

KEKWFENEWQGKNP [SEQ ID NO: 10, rat CD44v6 14mer; control peptide in human models]
HGF-induced phosphorylation/activation of ERK (CD44v6): no influence | HGF-induced phosphorylation/activation of Met (CD44v6): no influence | Metastasis formation (liver) (L3.6pl cells): neither influence on metastasis formation; also recorded: no influence on metastasis formation | Outgrowth of the primary tumor in the pancreas (L3.6pl cells): no influence on metastasis formation or on growth of the primary tumor | Metastasis (axillary lymph nodes and lungs) (BSp73ASs6 cells; 200 μg per injection i.t. or i.v., three times a week, four weeks, start after one week): completely inhibited metastasis | Metastasis and micro-metastasis in lung sections (PAS and H&E histology) (BSp73ASs6 cells; 200 μg three times a week): no metastasis nor micro-metastasis could be detected | Outgrowth of primary tumors (BSp73ASs6 cells; treatment for 28 days): not influenced

v6 14mer: murine v6 14mer per FIG. 27 legend; no sequence printed; b173 and b212 say SEQ ID NO: 6 (KEQWFGNRWHEGYR)
Total number of blood vessels in the primary tumor (anti-CD34 staining) (murine 4T1 cells; BALB/c mice, 4T1, 20 μg i.p. 3 times per week for two weeks): significantly reduced | Size of the primary tumor (murine 4T1 cells; BALB/c mice, 4T1 in mammary fat pad, 20 μg i.p. 3 times per week for two weeks, 5 animals per group): significant decrease of tumor size | Macroscopic lung metastases per animal (murine 4T1 cells; macroscopic analysis of the lungs, 5 animals per group): three animals showed no macroscopic metastases at all, whereas two animals had only one metastase

WFQNGWQGKNP (also: DY681 fluorescent dye label) [mv6 pep Dy681, reference compound]
Ex vivo fluorescence in excised tumors and lungs (BSp73ASs6 tumors): not in tumors and lungs
